Reference: BigSolDB 2.1

CC(=O)C1C(=O)C=C(C)OC1=O (centres undefined)
Settings	solubility (mole fraction)
in 2-butanone, 288.35 K	0.0125
in 2-butanone, 292.15 K	0.0153
in 2-butanone, 296.45 K	0.0165
in 2-butanone, 300.35 K	0.0196
in 2-butanone, 304.05 K	0.0227
in 2-butanone, 308.05 K	0.0285
in 2-butanone, 312.15 K	0.0315
in 2-butanone, 315.75 K	0.037
in DMAc, 288.35 K	0.0941
in DMAc, 292.15 K	0.111
in DMAc, 296.45 K	0.12
in DMAc, 300.45 K	0.135
in DMAc, 304.45 K	0.15
in DMAc, 308.25 K	0.168
in DMAc, 312.15 K	0.19
in DMAc, 316.35 K	0.205
in DMF, 288.5 K	0.0744
in DMF, 292.45 K	0.0857
in DMF, 296.35 K	0.093
in DMF, 299.95 K	0.105
in DMF, 304.45 K	0.123
in DMF, 307.85 K	0.139
in DMF, 312.35 K	0.162
in DMF, 315.85 K	0.181
in DMSO, 288.15 K	0.0267
in DMSO, 292.15 K	0.0314
in DMSO, 296.15 K	0.0383
in DMSO, 300.15 K	0.0462
in DMSO, 304.15 K	0.0544
in DMSO, 308.15 K	0.0599
in DMSO, 312.15 K	0.0738
in DMSO, 316.15 K	0.0874
in acetone, 288.15 K	0.0477
in acetone, 291.85 K	0.0547
in acetone, 296.15 K	0.0587
in acetone, 300.25 K	0.0695
in acetone, 304.15 K	0.0812
in acetone, 308.15 K	0.0964
in acetone, 312.05 K	0.111
in acetone, 316.25 K	0.13
in acetonitrile, 288.35 K	0.039
in acetonitrile, 292.35 K	0.0489
in acetonitrile, 296.25 K	0.0557
in acetonitrile, 300.35 K	0.0634
in acetonitrile, 304.05 K	0.0733
in acetonitrile, 308.15 K	0.0887
in acetonitrile, 312.65 K	0.107
in acetonitrile, 316.25 K	0.123
in ethanol, 288.25 K	0.00512
in ethanol, 291.95 K	0.00652
in ethanol, 296.25 K	0.00812
in ethanol, 300.35 K	0.00941
in ethanol, 303.65 K	0.0109
in ethanol, 308.55 K	0.0135
in ethanol, 312.65 K	0.0176
in ethanol, 316.15 K	0.0217
in ethyl acetate, 288.45 K	0.0499
in ethyl acetate, 292.45 K	0.0571
in ethyl acetate, 295.95 K	0.0646
in ethyl acetate, 300.25 K	0.0714
in ethyl acetate, 304.05 K	0.081
in ethyl acetate, 307.95 K	0.0938
in ethyl acetate, 312.25 K	0.109
in ethyl acetate, 316.35 K	0.128
in ethyl formate, 288.05 K	0.0536
in ethyl formate, 291.95 K	0.061
in ethyl formate, 296.15 K	0.067
in ethyl formate, 300.05 K	0.0765
in ethyl formate, 304.15 K	0.0894
in ethyl formate, 308.45 K	0.104
in ethyl formate, 312.45 K	0.119
in ethyl formate, 315.85 K	0.135
in isopropanol, 288.05 K	0.00448
in isopropanol, 292.35 K	0.0056
in isopropanol, 296.55 K	0.00709
in isopropanol, 300.15 K	0.00876
in isopropanol, 304.65 K	0.0105
in isopropanol, 308.15 K	0.0127
in isopropanol, 312.35 K	0.0168
in isopropanol, 315.65 K	0.0202
in methanol, 288.05 K	0.00588
in methanol, 292.35 K	0.00716
in methanol, 296.05 K	0.00781
in methanol, 300.15 K	0.0104
in methanol, 303.95 K	0.0113
in methanol, 308.55 K	0.0149
in methanol, 312.15 K	0.0174
in methanol, 316.05 K	0.022
in n-pentanol, 287.75 K	0.00604
in n-pentanol, 291.95 K	0.00758
in n-pentanol, 296.25 K	0.00959
in n-pentanol, 300.35 K	0.0117
in n-pentanol, 304.15 K	0.0148
in n-pentanol, 308.35 K	0.0189
in n-pentanol, 312.15 K	0.0233
in n-pentanol, 315.95 K	0.0284
in n-propanol, 287.95 K	0.00523
in n-propanol, 292.65 K	0.00657
in n-propanol, 296.35 K	0.00836
in n-propanol, 300.55 K	0.00974
in n-propanol, 304.35 K	0.0118
in n-propanol, 308.15 K	0.0143
in n-propanol, 312.65 K	0.0187
in n-propanol, 316.35 K	0.0224
